Test results: patent publication US20110052623A1, “DRIED MICROBIAL CELLS OR MICROORGANISM EXTRACT CONTAINING STABILIZED (SS)-S-ADENOSYL-L-METHIONINE AND METHOD FOR PRODUCTION OF THE DRIED MICROORGANISM CELL OR MICROORGANISM EXTRACT” (KANEKA CORPORATION, priority 2007, published 2011)
Counter-ions that a name gives are not always drawn. Like-named read-outs stand apart in the source and are kept apart here.

Tests used:
[1] = Stabilizing agent: dried yeast cells containing SAM with added compound preserved at 25° C. for 7 days; format: physicochemical
Procedure: The yeast cells obtained in the Reference Example were suspended in deionized water in one-sixth (⅙) of the amount of the culture solution. Each of the compounds listed in table 3 (30% by weight in terms of dry weight) was separately added to the resultant, followed by freezing at −80° C. and lyophilization. Thus, dried yeast cells containing SAM were obtained.

[2] = Bioabsorbability of spray-dried yeast cells containing (SS)-SAM, oral administration (Example 5); format: in vivo; details: SD rats, 20 g/L SAM at 5 ml/kg b.w.
Procedure: The obtained dried yeast cells were matured in the presence of silica gel at 40° C. for 7 days. Thus, dried yeast cells containing (SS)-SAM were obtained. The obtained dried yeast cells containing (SS)-SAM were suspended in distilled water to result in an SAM concentration of 20 g/L. The resultant was orally administered to SD rats (male, 17 weeks old) at a dose of 5 ml/kg b.w. […] The resultant was orally administered to rats in the same manner such that comparative control examples were obtained. Before administration and 1, 2, 3, 5, or 8 hours after administration, blood collection was carried out from the jugular vein without any anesthesia and with the use of heparin as an anticoagulant. The plasma components were collected via centrifugation. A 0.4 g/L trichloroacetic acid aqueous solution (40 μL) was added to the obtained plasma (200 μl), followed by mixing and centrifugation. The SAM concentration in the obtained supernatant was analyzed by HPLC.

[3] = Bioabsorbability of dried yeast cells containing (SS)-SAM, oral administration (Example 4); format: in vivo; details: SD rats, 20 g/L SAM at 5 ml/kg b.w.
Procedure: The resultant was orally administered to rats in the same manner such that comparative control examples were obtained. Before administration and 1, 2, 3, 5, or 8 hours after administration, blood was collected from the jugular vein without any anesthesia and with the use of heparin as an anticoagulant. The plasma components were collected via centrifugation. A 0.4 g/L trichloroacetic acid aqueous solution (40 μL) was added to the obtained plasma (200 μL), followed by mixing and centrifugation. The SAM concentration in the obtained supernatant was analyzed by HPLC. FIG. 1 and table 4 show the results.

[4] = compound added at 30% by weight to dried yeast cells, 25° C., 7 days

Molecule	SAM residual rate [1, 4] [%]	also measured
O=C(O)CC(O)C(=O)O (racemic) [DL-malic acid]	99.1	–
CCC(N)C(=O)O (racemic) [DL-α-amino-n-butyrate]	96.8	–
Cl.N [Ammonium chloride]	95.6	–
N.O=P(O)(O)O [Ammonium dihydrogen phosphate]	–	SAM residual rate [1]: 93.6%
N.N.O=S(=O)(O)O [Ammonium sulfate]	87.5	–
[Ca+2].[Cl-].[Cl-] [Calcium chloride]	–	SAM residual rate [1]: 93.7%
O=C(O)CC(O)(CC(=O)O)C(=O)O [Citric acid]	96.6	–
O=S(=O)([O-])[O-].[Cu+2] [Copper sulfate]	–	SAM residual rate [1]: 94.2%
OC[C@H]1O[C@@H](O[C@H]2[C@H](O)[C@@H](O)[C@H](O)O[C@@H]2CO)[C@H](O)[C@@H](O)[C@@H]1O [D-cellobiose]	93.1	–
CC(C)C[C@@H](N)C(=O)O [D-leucine]	91.9	–
OC[C@@H](O)[C@H](O)[C@H](O)[C@@H](O)CO [Dulcitol]	92.2	–
O.O.O.O.O.O.O.O=S(=O)([O-])[O-].[Fe+2] [Ferrous sulfate heptahydrate]	–	SAM residual rate [1]: 90.4%
OC[C@@H](O)[C@H](O)[C@H](O)[C@@H](O)CO [Galactitol]	90.7	–
O=C[C@H](O)[C@@H](O)[C@@H](O)[C@H](O)CO [Galactose]	99.7	–
O=C1O[C@H](CO)[C@@H](O)[C@H](O)[C@H]1O [Glucono-δ-lactone]	100.7	–
NCC(=O)O [Glycine]	97.5	–
O[C@H]1[C@H](O)[C@@H](O)[C@H](O)[C@@H](O)[C@H]1O [Inositol]	96.2	–
C[C@H](N)C(=O)O [L-alanine]	86.9	–
O=C1O[C@H]([C@@H](O)CO)C(O)=C1O [L-ascorbic acid]	90.0	–
NC(=O)CC[C@H](N)C(=O)O [L-glutamine]	94.5	–
CSCC[C@H](N)C(=O)O [L-methionine]	100.9	–
O=C(CO)[C@@H](O)[C@H](O)[C@@H](O)CO [L-sorbose]	88.4	–
O=C(O)[C@H](O)[C@@H](O)C(=O)O [L-tartaric acid]	88.1	–

Molecule	SAM residual rate [1, 4] [%]	also measured
C[C@@H](O)[C@H](N)C(=O)O [L-threonine]	92.0	–
CC(C)[C@H](N)C(=O)O [L-valine]	89.7	–
OC[C@@H](O)[C@@H](O[C@@H]1O[C@H](CO)[C@H](O)[C@H](O)[C@H]1O)[C@H](O)[C@@H](O)CO [Lactitol]	91.3	–
O=S(=O)([O-])[O-].[Mg+2] [Magnesium sulfate]	–	SAM residual rate [1]: 101.6%
O=S(=O)([O-])[O-].[Mn+2] [Manganese sulfate]	95.0	–
OC[C@@H](O)[C@@H](O)[C@H](O)[C@H](O)CO [Mannitol]	86.8	–
CC(=O)N[C@H]1C(O)O[C@H](CO)[C@@H](O)[C@@H]1O (stereo partly drawn) [N-acetylglucosamine]	97.6	–
O=C(O)c1cccnc1 [Nicotinic acid]	102.3	–
NC(=O)c1cccnc1 [Nicotinic-acid amide]	97.3	–
O=P(O)(O)O [Phosphoric acid]	89.3	–
C[S+](CC[C@H](N)C(=O)[O-])C[C@H]1O[C@@H](n2cnc3c(N)ncnc32)[C@H](O)[C@@H]1O.Cc1ccc(S(=O)(=O)O)cc1.O=S(=O)(O)O.O=S(=O)(O)O (stereo partly drawn) [SAM/p-toluenesulfonic acid/sulfate]	–	Area under SAM concentration curve (AUC) ([2]; AUC at 8 hours after administration, dried yeast cells of Example 5): 3200 ng·h/mL; Maximum SAM concentration in plasma ([2]; dried yeast cells of Example 5 (spray dried)): 0.771 µg/mL; Area under SAM concentration curve (AUC) ([3]; AUC at 8 hours after administration, dried yeast cells of Example 1): 3200 ng·h/mL; Maximum SAM concentration in plasma ([3]; dried yeast cells of Example 1 (lyophilized)): 0.771 µg/mL
O=C([O-])[C@H](O)[C@@H](O)[C@H](O)[C@H](O)CO.[Na+] [Sodium gluconate]	89.1	–
OC[C@@H](O)[C@@H](O)[C@H](O)[C@@H](O)CO [Sorbitol]	98.2	–
OC[C@H]1O[C@@](CO)(O[C@H]2O[C@H](CO)[C@@H](O)[C@H](O)[C@H]2O)[C@@H](O)[C@@H]1O [Sucrose]	93.8	–
O=S(=O)([O-])[O-].[Zn+2] [Zinc sulfate]	–	SAM residual rate [1]: 94.3%
Cc1ncc(C[n+]2csc(CCO)c2C)c(N)n1 [thiamine hydrochloride]	99.5	–
Cellulose	92.0	–
Ferric chloride hexahydrate	95.7	–
Fructo-oligosaccharide	85.9	–
Glycogen	94.6	–
Inulin	93.1	–
Isomalto-oligosaccharide	84.9	–
